Test results published in patent publication US10351501B2, “Gem difluorocompounds as depigmenting or lightening agents” (TFCHEM, priority 2015, dated 2019).

Key:
[1] = In vitro human skin absorption, Franz diffusion cell: quantification in the receptor fluid (flux); format: in vitro ADME; details: human, 2 mg/ml
Text: The aim of this study was to evaluate the absorption of compound 11 applied to excised human skin.
In vitro method using a Franz diffusion cell allows measuring the diffusion of chemicals into and across skin.
The tested compound is applied to the surface of a human skin explant separating the two chambers of a Franz diffusion cell. The compound remains on the skin for a specified time under specified conditions. The receptor fluid is sampled at time points throughout the experiment and analyzed for the tested compound. The skin may also be fractioned for separate analysis in epidermis or dermis layers.
The transcutaneous absorption was measured on human skin collected from the abdominoplasty of a single donor. At reception, the skin was defatted and cut in several fragments in order to perform Franz experiment. […]
The tested compounds were quantified, at T0 h and T24 h in the receptor solution bathing the inner surface of the skin (determination of flux), or at T24 h in the fractionated skin extracts (epidermis or dermis). […]
Sampling: 500 μL from the receptor fluid were removed at T0 h (replaced by Ringer solution) and at T24 h. These samples were analyzed by LC-MS/MS method for quantification of compound 11 and deoxyarbutin (results not shown). The quantity measured allowed to calculate a flux and to compare the absorption profile across the skin of compound 11 and deoxyarbutin.

[2] = test system: human tyrosinase; test: HumanLike Tyrosinase Assay kit (Feldan), L-Tyrosine to dopachrome, OD at 490 nm; format: biochemical; details: for OD at 490 nm: 1.12 mM
Experimental: The efficacy of compound 16 was evaluated by the inhibition of human tyrosinase in tubo and compared to the compound 11.
The assay was performed with a ready-to-use kit from Feldan Inc (Canada): the HumanLike Tyrosinase Assay kit (ref A021-a-001Kit).
The protocol was performed as described in the instructions for use of the manufacturer. Briefly, this kit is intended for the determination of human tyrosinase activity in presence of different inhibitors. The kit measures the conversion of L-Tyrosine into a dopachrome complex absorbing at 490 nm. The time course of the assay is 20 minutes, after which the results are analyzed and compared.
The compounds 11 and 16 have been tested at a final concentration of 1.12 mM.
The measured absorbances at 490 nm are reported in the table 5 and plotted in function of time in the FIG. 1.
Moreover for each compound the efficacy as tyrosinase inhibitor was calculated using the following formula: […]

[3] = Antioxidant activity by the spectrophotometric method of the free radical DPPH•
Text: The aim of the study was to evaluate the antioxidant activity of compound 11 by the spectrophotometric method of the free radical DPPH• (2,2-diphenyl-1-picrylhydrazyl). Indeed, antioxidants react with DPPH^• (purple), a stable free radical which is reduced to DPPH-H (yellow), and in consequence, the absorbance is decreased from the DPPH^• radical to the DPPH-H form. The degree of discoloration indicates the scavenging potential of the antioxidant compounds in terms of hydrogen donating ability (Popovici et al. Revue de génie industriel 2009, 4, 25-39).
The tested compounds were: Trolox ((±)-6-hydroxy-2,5,7,8-tetramethylchromane-2-carboxylic acid, Sigma Aldrich), as reference, and compound 11.
A stock solution of DPPH• was prepared at 200 μmol/mL in methanol and diluted in methanol in order to have a final concentration of around 150 μmol/mL to obtain a DO close to 0.9 in a plate of 96 wells. The antioxidant stock solutions were prepared at 1 mg/mL in methanol and the tested solutions were prepared from these antioxidant stock solutions as described in Table 7 below.
50 μL of each solution of antioxidant was added to the wells. Then, 200 μL of DPPH^• was added to each well.
The blank was prepared with only 250 μl of methanol and the negative control was prepared with 200 μL DPPH• and 50 μL of methanol.
The analysis was started immediately after the addition of DPPH• lasting for 2 hours (readings every 20 seconds). The absorbance was read at 515 nm. Each experiment was performed three times and had shown that the absorbance decreases while the concentration of antioxidant increased.
The activity of DPPH• is a percentage calculated as the ratio of A/An×100%.
The EC50 is expressed as a molar ratio of antioxidant (compound 11)/DPPH• (Popovici et al. Revue de génie industriel 2009, 4, 25-39). The EC50 was determined from the graph representing the percentage of DPPH• in function of the above mentioned molar ratio (moles of compound 11/moles of DPPH•).
The antioxidant activity of compound 11 was compared to that of Trolox used as a reference (considered as 100%).

Flux, mean (n = 3) [1]: 2.71 μg/h/cm^2 | OD at 490 nm ([2]; time 0 min): 0.0000 | OD at 490 nm ([2]; time 1 min): 0.0095 | OD at 490 nm ([2]; time 2 min): 0.0190 | OD at 490 nm ([2]; time 3 min): 0.0295 | OD at 490 nm ([2]; time 4 min): 0.0400 | OD at 490 nm ([2]; time 5 min): 0.0505 | OD at 490 nm ([2]; time 6 min): 0.0610 | OD at 490 nm ([2]; time 7 min): 0.0715 | OD at 490 nm ([2]; time 8 min): 0.0825 | OD at 490 nm ([2]; time 9 min): 0.0925 | OD at 490 nm ([2]; time 10 min): 0.1035 | OD at 490 nm ([2]; time 11 min): 0.1135 | OD at 490 nm ([2]; time 12 min): 0.1245 | OD at 490 nm ([2]; time 13 min): 0.1355 | OD at 490 nm ([2]; time 14 min): 0.1465 | OD at 490 nm ([2]; time 15 min): 0.1575 | OD at 490 nm ([2]; time 16 min): 0.1685 | OD at 490 nm ([2]; time 17 min): 0.1790 | OD at 490 nm ([2]; time 18 min): 0.1900 | OD at 490 nm ([2]; time 19 min): 0.2010 | OD at 490 nm ([2]; time 20 min): 0.2120 | Inhibitor efficacy (%) ([2]; Compound at 1.12 mM, T = 20 min): 13.5% | EC50 (Ratio antioxidant/DPPH•) Mean ([3]; molar ratio antioxidant/DPPH•, absorbance at T = 30 min): 0.772
SMILES: Oc1ccc(OC2CCCCC2(F)F)cc1 (racemic) [Compound 11]
A at 515 nm (T = 30 min) ([3]; Solution 1 (0.05 mg/mL in methanol)): 0.505 | A at 515 nm (T = 30 min) ([3]; Solution 2 (0.10 mg/mL in methanol)): 0.373 | A at 515 nm (T = 30 min) ([3]; Solution 3 (0.15 mg/mL in methanol)): 0.234 | A at 515 nm (T = 30 min) ([3]; Solution 4 (0.2 mg/mL in methanol)): 0.233 | antioxidant (free radical scavenger) efficacy compared to that of Trolox ([3]; Trolox considered as 100%): 31.1%
